Experimental data published in ChEMBL document CHEMBL1201862, “PubChem BioAssay data set” (2004).
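Values below derive from 48-hour exposures of cells grown in 96-well plates, with endpoints linearly interpolated between the two concentrations bracketing the appropriate inhibition level. Abbreviation: GI50, concentration required for 50% inhibition of growth.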 Activity calls are given as the source filed them. No stated cut-off is given here; in the data, active = GI50 up to about 1.1 µM and inactive = higher.

Tests used:
Experiment in all cases: growth of human tumour cells (NCI), 48 h
[1] = test system: RPMI-8226
[2] = test system: SK-MEL-2
[3] = test system: SW-620
[4] = test system: NCI-H460
[5] = test system: RXF 393
[6] = test system: TK-10
[7] = test system: MDA-MB-435
[8] = test system: NCI/ADR-RES
[9] = test system: SF-539
[10] = test system: BT-549
[11] = test system: UO-31
[12] = test system: HOP-62
[13] = test system: T47D
[14] = test system: OVCAR-4
[15] = test system: U-251
[16] = test system: OVCAR-3
[17] = test system: HL-60
[18] = test system: LOX IMVI
[19] = test system: SN12C
[20] = test system: CCRF-CEM

Measured: GI50

Cc1ccc(S(=O)(=O)N(CC(O)COc2ccccc2)c2ccccc2Cl)cc1 (stereo unspecified)
inactive: [1] 11.5 µM | [2] 13.7 µM | [3] 17.8 µM | [4] 17 µM | [5] 16 µM | [6] 14.2 µM | [7] 15.6 µM | [8] 16.8 µM | [9] 18 µM | [10] 17.1 µM | [11] 12.2 µM | [12] 20 µM | [13] 24.9 µM | [14] 12.4 µM | [15] 14.4 µM | [16] 19 µM | [17] 24.6 µM | [18] 17.3 µM | [19] 15 µM | [20] 13.9 µM

CN(C1=NS(=O)(=O)N=C(N(C)c2ccccc2)O1)c1ccccc1
inactive: [1] 16.9 µM | [2] 16.4 µM | [3] 14 µM | [4] 21.8 µM | [5] 3.55 µM | [6] 35.1 µM | [7] 13.8 µM | [8] 21.8 µM | [9] 21.6 µM | [10] 8.38 µM | [11] 21.4 µM | [12] 22.9 µM | [13] 21.2 µM | [14] 20.8 µM | [15] 16 µM | [16] 20.3 µM | [17] 13.6 µM | [18] 13.3 µM | [19] 18.7 µM | [20] 13.4 µM

CN(C)c1ncnc2c1ncn2CCn1cnc2c(N(C)C)ncnc21
inactive: [1] > 100 µM | [2] > 100 µM | [3] > 100 µM | [4] > 100 µM | [5] > 100 µM | [6] > 100 µM | [7] > 100 µM | [8] > 100 µM | [9] > 100 µM | [10] > 100 µM | [11] > 100 µM | [12] > 100 µM | [13] > 100 µM | [14] > 100 µM | [15] > 100 µM | [16] > 100 µM | [17] > 100 µM | [18] > 100 µM | [19] > 100 µM | [20] > 100 µM

c1ccc(C2C3=C(CCCC3)Nc3nc4cc5ccccc5cc4n32)cc1 (stereo unspecified)
inactive: [1] > 100 µM | [2] > 100 µM | [3] > 100 µM | [4] > 100 µM | [5] > 100 µM | [7] > 100 µM | [8] > 100 µM | [9] > 100 µM | [10] > 100 µM | [11] > 100 µM | [13] > 100 µM | [14] > 100 µM | [15] > 100 µM | [16] > 100 µM | [17] > 100 µM | [18] > 100 µM | [19] > 100 µM | [20] > 100 µM

C=CCCC(=O)CC(O)(C(F)(F)F)C(F)(F)F
inactive: [1] > 100 µM | [2] > 100 µM | [3] > 100 µM | [4] > 100 µM | [5] > 100 µM | [6] > 100 µM | [7] > 100 µM | [8] > 100 µM | [9] > 100 µM | [10] > 100 µM | [11] > 100 µM | [13] > 100 µM | [14] > 100 µM | [15] > 100 µM | [16] > 100 µM | [17] > 100 µM | [18] > 100 µM | [20] > 100 µM
